Assays:
Experiment in all cases: relative viability (nuclei count vs DMSO), 5 days (fraction); higher = more cells survive
ALW-II-49-7 + Pemetrexed = compound: Cc1ccc(C(=O)Nc2cccc(C(F)(F)F)c2)cc1Nc1cncc(C(N)=O)c1 [ALW-II-49-7] + Nc1nc2[nH]cc(CCc3ccc(C(=O)N[C@@H](CCC(=O)O)C(=O)O)cc3)c2c(=O)[nH]1 [Pemetrexed] (partner 0.2 µM)
Summary of the method: (§1)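 Relative viability equals treated-well nuclei counts divided by vehicle-well nuclei counts. Counts came from 4× images of lung cancer cell lines grown in 1536-well plates for 5 days after pin-tool dosing on the day after seeding. Dosing used one drug alone or a fixed anchor-drug dose plus five library-drug doses (not always all listed) in √10 steps, and values are medians of duplicate plates.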

XMD13-2 + Vorinostat = compound: C1CC1C(=O)NC2=NNC3=C2C=CC(=C3)C4=CC(=CC=C4)C(=O)NC5CC5 [XMD13-2] + O=C(CCCCCCC(=O)Nc1ccccc1)NO [Vorinostat] (partner 1 µM)
Summary of the method: as §1

ALW-II-49-7 + Luminespib = compound: Cc1ccc(C(=O)Nc2cccc(C(F)(F)F)c2)cc1Nc1cncc(C(N)=O)c1 [ALW-II-49-7] + CCNC(=O)c1noc(-c2cc(C(C)C)c(O)cc2O)c1-c1ccc(CN2CCOCC2)cc1 [Luminespib] (partner 0.01 µM)
Summary of the method: as §1

XMD13-2 + Dasatinib = compound: C1CC1C(=O)NC2=NNC3=C2C=CC(=C3)C4=CC(=CC=C4)C(=O)NC5CC5 [XMD13-2] + Cc1nc(Nc2ncc(C(=O)Nc3c(C)cccc3Cl)s2)cc(N2CCN(CCO)CC2)n1 [Dasatinib] (partner 0.075 µM)
Summary of the method: as §1

Row | Cell Line | relative viability (ALW-II-49-7 + Pemetrexed; first compound 0.08 µM) | relative viability (ALW-II-49-7 + Pemetrexed; first compound 0.253 µM) | relative viability (ALW-II-49-7 + Pemetrexed; first compound 0.8 µM) | relative viability (ALW-II-49-7 + Pemetrexed; first compound 2.53 µM) | relative viability (ALW-II-49-7 + Pemetrexed; first compound 8 µM) | relative viability (XMD13-2 + Vorinostat; first compound 0.05 µM) | relative viability (XMD13-2 + Vorinostat; first compound 0.1581 µM) | relative viability (XMD13-2 + Vorinostat; first compound 0.5 µM) | relative viability (XMD13-2 + Vorinostat; first compound 1.581 µM) | relative viability (XMD13-2 + Vorinostat; first compound 5 µM) | relative viability (ALW-II-49-7 + Luminespib; first compound 0.08 µM) | relative viability (ALW-II-49-7 + Luminespib; first compound 0.253 µM) | relative viability (ALW-II-49-7 + Luminespib; first compound 0.8 µM) | relative viability (ALW-II-49-7 + Luminespib; first compound 2.53 µM) | relative viability (ALW-II-49-7 + Luminespib; first compound 8 µM) | relative viability (XMD13-2 + Dasatinib; first compound 0.05 µM) | relative viability (XMD13-2 + Dasatinib; first compound 0.1581 µM) | relative viability (XMD13-2 + Dasatinib; first compound 0.5 µM) | relative viability (XMD13-2 + Dasatinib; first compound 1.581 µM) | relative viability (XMD13-2 + Dasatinib; first compound 5 µM)
1 | SK-LU-1 | 0.992 | 1.08 | 1.04 | 0.834 | 0.569 | 0.874 | 0.831 | 0.959 | 0.719 | 0.74 | 0.184 | 0.221 | 0.21 | 0.192 | 0.157 | 0.195 | 0.185 | 0.199 | 0.164 | 0.199
2 | SK-MES-1 | 0.888 | 0.964 | 0.916 | 0.867 | 0.686 | 1.16 | 1.09 | 1.07 | 1.03 | 1.31 | 0.591 | 0.797 | 0.8 | 0.864 | 0.719 | 0.347 | 0.349 | 0.296 | 0.325 | 0.374
3 | SW 900 | 0.449 | 0.492 | – | 0.517 | 0.316 | 0.721 | 0.42 | 0.501 | 0.45 | 0.623 | 0.16 | 0.141 | 0.191 | 0.171 | 0.155 | 0.616 | 0.537 | 0.601 | 0.578 | 0.652
4 | SW 1573 | 0.608 | 0.847 | 0.77 | 0.667 | 0.827 | 0.786 | 0.625 | 0.853 | 0.844 | 0.385 | 0.29 | 0.223 | 0.251 | 0.289 | 0.144 | 0.593 | 0.458 | 0.514 | 0.454 | 0.397

Source: the supplement of paper PMC10307832
